PubChem BioAssay AID1845213 (Molecular Pharmacology Branch, DTP, NCI, 2023)
Values joined by “and” are separate entries in the source; they are usually repeats but may differ in a detail not shown here. Equal entries are not always repeated. Active and inactive are the calls of the source. The calls were made as follows: active = viability on the fitted dose curve at most 10% of control; inactive = the rest.

Tested on: NCI-H841 complex tumor spheroid viability
Assay: Anticancer human tumor NCI-H841 cell line growth inhibition;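 as to IC50: spheroids exposed to compounds for 7 days before readout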;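 as to viability, T/C: spheroids exposed to compounds for 7 days before readout; 100% = DMSO vehicle control wells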
Settings: for viability, T/C: stronger effect = lower value
Outline: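 Complex tumor spheroids combined malignant cells with endothelial cells and mesenchymal stem cells. DNA-damaging drugs and DNA repair inhibitors were tested alone and in combination, at half-log dilutions down from clinical Cmax (top 10 microM if Cmax unknown), 0.25% DMSO final.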

Cc1cc(C)c(CNC(=O)c2cc(-c3ccc(CN4CCOCC4)cc3)cc3c2cnn3C2CCCC2)c(=O)[nH]1 + Cn1nnc2c(C(N)=O)ncn2c1=O
7.7 µM: IC50 (curve of first compound, second compound 100 µM)
inactive: viability, T/C (second compound 1 µM, first compound 0.0316 µM) 101% | viability, T/C (second compound 1 µM, first compound 0.1 µM) 102% | viability, T/C (second compound 1 µM, first compound 0.316 µM) 97.2% | viability, T/C (second compound 1 µM, first compound 1 µM) 94.6% | viability, T/C (second compound 1 µM, first compound 3.16 µM) 78.9% | viability, T/C (second compound 1 µM, first compound 10 µM) 40.1% | viability, T/C (second compound 3.16 µM, first compound 0.0316 µM) 101% | viability, T/C (second compound 3.16 µM, first compound 0.1 µM) 105% | viability, T/C (second compound 3.16 µM, first compound 0.316 µM) 102% | viability, T/C (second compound 3.16 µM, first compound 1 µM) 97.4% | viability, T/C (second compound 3.16 µM, first compound 3.16 µM) 85.2% | viability, T/C (second compound 3.16 µM, first compound 10 µM) 56.3% | viability, T/C (second compound 10 µM, first compound 0.0316 µM) 103% | viability, T/C (second compound 10 µM, first compound 0.1 µM) 108% | viability, T/C (second compound 10 µM, first compound 0.316 µM) 105% | viability, T/C (second compound 10 µM, first compound 1 µM) 94.9% | viability, T/C (second compound 10 µM, first compound 3.16 µM) 87.2% | viability, T/C (second compound 10 µM, first compound 10 µM) 52.5% | outcome (second compound 31.6 µM, first compound 0.0316 µM) | viability, T/C (second compound 31.6 µM, first compound 0.1 µM) 101% | viability, T/C (second compound 31.6 µM, first compound 0.316 µM) 97.6% | viability, T/C (second compound 31.6 µM, first compound 1 µM) 103% | viability, T/C (second compound 31.6 µM, first compound 3.16 µM) 83% | viability, T/C (second compound 31.6 µM, first compound 10 µM) 49.2% | viability, T/C (second compound 100 µM, first compound 0.0316 µM) 98.3% | viability, T/C (second compound 100 µM, first compound 0.1 µM) 99.2% | viability, T/C (second compound 100 µM, first compound 0.316 µM) 95.8% | viability, T/C (second compound 100 µM, first compound 1 µM) 97.6% | viability, T/C (second compound 100 µM, first compound 3.16 µM) 77.6% | viability, T/C (second compound 100 µM, first compound 10 µM) 41.7%
9.72 µM: IC50 (curve of first compound, second compound 31.6 µM)
> 10 µM: IC50 (curve of first compound, second compound 3.16 µM) | IC50 (curve of first compound, second compound 10 µM)
7.5 µM: IC50 (curve of first compound, second compound 1 µM)

[2H]c1nc(C)nc([2H])c1-c1cc(NC[C@@H](C)c2cccc3c(C(=O)NC)ccnc23)ncn1
> 10 µM: IC50 (curve of compound)
inactive: viability, T/C (compound 0.0316 µM) 100% and 97.5% and 102% | viability, T/C (compound 0.1 µM) 99.4% and 97.2% and 100% | viability, T/C (compound 0.316 µM) 98.4% and 102% and 98.1% | viability, T/C (compound 1 µM) 98.7% and 99.9% and 96.8% | viability, T/C (compound 3.16 µM) 98.2% and 103% and 95.4% | viability, T/C (compound 10 µM) 92.6% and 102% and 96.8%
